Assay results published in patent publication US11612634B2 (priority 2020, dated 2023).
“Also recorded” adds a separate entry of the source.

Legend:
Assay type in all cases: in vivo
[1] = system: morphine analgesic tolerance, neuropathic pain rat model
Description: (1) 18 healthy adult SD rats, weighing 180-220 g, were selected to build a CCI-induced neuropathic pain model. On the 7th day after modeling, those successfully-established models were randomly divided into 3 groups, where the group A was injected with normal saline; the group B was injected with morphine (15 μg, 10 μL); and the group C was injected with 0.2 μg/kg of the short peptide P10581, and then injected with morphine (15 μg, 10 μL) 30 min later. 1 h later, the PWT of each group was recorded.
(2) Each group was injected with the drug respectively at 9:00 a.m. and 5:30 p.m. from 7th day to 11th day after modeling, and the PWT of each group was measured before and after the administration in the morning every day.

[2] = system: morphine analgesic tolerance, BCP rat model; test: Effect on morphine analgesic tolerance in BCP rat model
Description: The successfully-established BCP model rats were divided into 4 groups randomly on the 22nd day after modeling, where the group A was injected with 0.2 μg/kg of the short peptide P10581; the group B was injected with 0.2 μg/kg of the short peptide P10581, and injected with 5 mg/kg of the morphine 30 min later; the group C was injected with 0.4 μg/kg of the short peptide P10581; and the group D was injected with 0.4 μg/kg of the short peptide P10581, and injected with 5 mg/kg of the morphine 30 min later. 1 h later, the PWT of the right hind paw of each group was recorded. Each of the rats was measured 3-5 times with an interval of 5-10 min, and the PWTs were averaged to taken as the practical PWT (unit: g). The drug administration was performed twice a day (at 9:30 a.m. and 4:30 p.m.) for consecutive 4 days, and the PWT of each group before and after the administration in the morning was measured.
ΔPWT (%) in FIG. 15D was calculated as follows: ΔPWT(%)=100*{[PWT(post-drug)−PWT(pre-drug)]/ΔPWT(Maxi)}(%): […]

[3] = system: morphine analgesic tolerance, inflammatory pain rat model; test: Effect on morphine analgesic tolerance in Carr-induced inflammatory pain rat model; conditions: for effect on morphine analgesic tolerance: every 2 h
Description: The Carr-induced inflammatory pain model was built according to a published method (Alessandri-Haber N, et al. Neurosci. Vol 29(19), pp. 6217-6288, 2009) for evaluating an analgesic effect of drugs administered by intraplantar injection. Specifically, 6 μL of 1 wt % Carr solution was injected into the rats between the 2nd and 3rd toes of a left hind paw to induce hyperalgesia, which was manifested as plantar swelling and a declined pain threshold of the rats within 1 hour after the injection. Those rats with a PWT lower than 100 gf were considered to be a desired Carr-induced inflammatory pain model, those rats with the PWT higher than 100 gf was removed.
(1) 24 healthy adult SD rats, weighing 180-220 g, were selected, reinjected with 6 μL of a 1 wt % Carr solution and divided into 4 groups randomly and averagely (i.e., groups A-D). The group A was injected with normal saline; the group B was intradermally injected with 0.1 μg/kg of the short peptide P10581 through the plantar surface of the left hind paw; the group C was intradermally injected with 0.1 μg/kg of the short peptide P10581 and then with 5 mg/kg of morphine 30 min later through the plantar surface of the left hind paw; and the group D was intradermally injected with 0.05 μg/kg of the short peptide P10581, and then with 5 mg/kg of morphine 30 min later through the plantar surface of the left hind paw. 1 h later, the PWT of each group was recorded when the mechanical withdrawal of the left hind paw occurred, and each rat was measured 3-5 times at an interval of 5-10 min.
(2) The drug was injected every 2 h according to the above-mentioned administration dose and time (seven times in total), and the PWT was recorded.
(S1) By means of molecular biological techniques, two cysteine residues (Cys10 and Cys11) in the short peptide P10581 were replaced with alanine (Ala), and the resulting peptide was named P10581-1 (SEQ ID NO: 2).
(S2) Three cysteine residues (Cys10, Cys11 and Cys17) in the short peptide P10581 were replaced with alanine (Ala), and the resulting peptide was named P10581-2 (SEQ ID NO: 3).
The rat was injected with 6 μL of 1 wt % Carr to establish a Carr-induced inflammatory pain model, and the effect of the short peptides P10581, P10581-1 and P10581-2 on the morphine analgesic tolerance was analyzed according to Experimental Example 1. […]

| Compound | analgesic effect of morphine on neuropathic pain ([1]; rat, in vivo) | effect on morphine analgesic tolerance ([1]; 0.2 μg/kg peptide intrathecal 30 min before morphine 15 μg) | reversal of morphine analgesic tolerance for BCP ([2]; 0.2 μg/kg peptide S.C. before 5 mg/kg morphine, twice a day, 4 days) [%] | restoration of analgesic effect of morphine on BCP ([2]; 0.4 μg/kg peptide S.C. before 5 mg/kg morphine, repeated) | dose at which morphine analgesic tolerance is effectively eliminated ([2]; BCP, rats) [µg/kg] | effect on morphine analgesic tolerance ([3]; 0.05 μg/kg peptide i.d. 30 min before 5 mg/kg morphine) | duration of eliminating effect on morphine analgesic tolerance ([3]; 0.1 μg/kg and 0.05 μg/kg peptide with 5 mg/kg morphine) | effect on morphine analgesic tolerance ([3]; 0.1 μg/kg peptide i.d. 30 min before 5 mg/kg morphine) | dose at which morphine analgesic tolerance is effectively alleviated ([3]; inflammatory pain, rats) [µg/kg] |
| --- | --- | --- | --- | --- | --- | --- | --- | --- | --- |
| CN1CC[C@]23c4c5ccc(O)c4O[C@H]2[C@@H](O)C=C[C@H]3[C@H]1C5 [morphine, reference compound] | completely disappeared |  |  |  |  |  |  |  |  |
| WKCNPNDDKCCRPKLKC [P10581] |  | completely eliminated | 73.9 | completely restored | ≥ 0.20 | morphine analgesic tolerance can be eliminated; also recorded: completely eliminate the morphine analgesic tolerance | over 14 h | morphine analgesic tolerance can be eliminated; also recorded: completely eliminated | ≥ 0.05 |
